Reference: patent US7326710B2, “Aralkyl formyl-alkyl piperazine derivatives and their uses as a cerebral nerve protective agent” (Shanghai Institute of Pharmaceutical Industry, priority 2002, dated 2008)
Where two headings read alike, the source gives them in different places.

Tests used:
cerebral anoxia in mice = assay: Anoxic anoxia experiment in mice (closed wide-mouth bottles with soda lime); assay type: in vivo, Male Kunming mice
Procedure: Methods: Male Kunming mice were divided into 8 groups, 12 mice for each group. One group is injected subcutaneously with saline ([…], sc), other groups with ACEA1021 (NMDA receptor antagonist under clinical trial) or IV-23. 30 minutes after administration, the animals were put separately into wide-mouth bottles with soda lime, which more quickly closed. The survival time for each mice was recorded, and the group average of survival time was calculated and compared with the saline group.

[1] = tested on: focal cerebral ischemia in rats; assay: Focal brain injury, occlusion of MCA induced by photochemical reaction; assay type: in vivo; details: rats, 2 mg/kg
Procedure: a. Focal brain injury caused by photochemical induction of occlusion of the artery:
The percentage of infarction was lowered by 52% at 24 hours after operation.

[2] = tested on: focal cerebral ischemia in rats; assay: Temporary occlusion of the right MCA in rats caused by suture; assay type: in vivo; details: rats; 10 mg/kg; length of ischemia 6 hr
Excerpt: b. Temporary occlusion of the right MCA in rats caused by suture.

[3] = tested on: anoxia induced by sodium nitrite in mice; assay: Anti-cerebral anoxia in mice, anoxia induced by sodium nitrite; assay type: in vivo; details: sodium nitrite 225 mg/kg ip, compound 20 mg/kg sc; for ILS at 20 mg/kg: Mus musculus, sc
Procedure: The rates of the prolongation of 9 compounds (IV-2, 10, 23, 32, 34, 36, 39, 40, 41) were more than 50%, which indicated the effect of anti-cerebral anoxia. IV-23 and IV-2 prolonged the survival duration by 100% of the animals, showing remarkably protective action for cerebral anoxia. (Table 3)
One model was established to test the time needed for mice to die because of anoxia caused by sodium nitrite (225 mg/kg, ip). IV-23 (20 mg/kg, sc) can prolong the time for 100%, indicating significant anti-cerebral anoxic anoxia activity.

NMDA receptor = assay: Maximum contraction of isolated guinea pig longitudinal ileum muscle preparations induced by L-Glu; details: for excitation: concentration, unit not given, direct excitation of the preparation; for Glu-like excited action: excite preparations directly and induce contraction
Excerpt: According to the literature (Luzzi, Br J Pharmacol, 95:1271, 1988), maximum contraction of isolated longitudinal ileomuscle preparations of guinea pig induced by L-Glu, were used to examine the activities of the compounds on the NMDA receptor.

[4] = tested on: focal cerebral ischemia in rats; assay: Focal cerebral ischemia in rats by occlusion of middle cerebral artery (MCA); assay type: in vivo; details: 20 mg/kg p.o.; for Neurological deficit 24 h: 24 h after operation
Procedure: The focal ischemia rat model by occlusion of middle cerebral artery (MCA) was used to determine the protective effects of the compounds on focal cerebral ischemia. The infarct size after focal cerebral ischemia and the weight percentage of cerebral hemisphere were calculated to evaluate the compounds' effects on focal cerebral ischemia.

[5] = tested on: global cerebral ischemia in rats; assay: Global cerebral ischemia in rats, bilateral common carotid artery occlusion with exsanguine hypotension; assay type: in vivo; details: reperfusion after 10 min occlusion
Excerpt: The animal models of the bilateral common carotid artery occlusion with exsanguine hypotension in the rats were used to investigate the effect against global cerebral ischemia.
Methods: The animals were administrated four compounds (IV-2, 23, 34, 36) orally for 3 days before the experiment. […]

[6] = tested on: primary culture of rat cerebral cortical neuronal cells; assay: Effect of NMDA on neurons, LDH activity in supernatant; assay type: cell-based; details: n = 12
Excerpt: Primary culture of rat cerebral cortical neuronal cells were used. […] This is further evidence that IV-23 is a new NMDA receptor antagonist, and has anti-cerebral ischemic injury functions as well.

[7] = tested on: focal cerebral ischemia in rats; assay: Focal cerebral infarction, electrical coagulation to occlude MCA; assay type: in vivo; parameters: The neurological deficit score After the operation / The neurological deficit score 24 h: scale not given here; details: Nimodipine, dose not given
Procedure: a. The Focal Cerebral-Infarction of Using Electrical Coagulation to Occlude MCA:
For the 5 mg/kg group, the percentage of the rat's infarct size was decreased, but the difference is not significant (p=0.098). The effect is not significant for the Nimodipine mg/kg.

[8] = tested on: global cerebral ischemia-reperfusion injury in rats; assay: Global cerebral ischemia-reperfusion in rats, four arteries reversible occlusion; assay type: in vivo; details: Nimodipine 1 mg/kg
Excerpt: The effect of IV-23 on cerebral ischemia-reperfusion in rats was studied using four arteries reversible occlusion by measuring the recovering time of the electroencephalogram and the righting reflex (a short time indicates a strong effect).

[9] = mice, read-out: Prolonging the survival duration (%)

| SMILES | ILS at 20 mg/kg [3, 9] | excitation (NMDA receptor) | Glu-like excited action (NMDA receptor) | Infarct volume [4] | Neurological deficit After operation [4] | Neurological deficit 24 h [4] | further results |
| --- | --- | --- | --- | --- | --- | --- | --- |
| O=c1[nH]c2cc(Cl)c(Cl)c([N+](=O)[O-])c2[nH]c1=O [ACEA-1021, reference compound] | – | – | – | – | – | – | Average survival time (min)(means ± S.E.M.) (cerebral anoxia in mice; 2.5 mg/kg sc): 17.33 ± 1.18 min; Average survival time (min)(means ± S.E.M.) (cerebral anoxia in mice; 5 mg/kg sc): 18.20 ± 0.82 min; Average survival time (min)(means ± S.E.M.) (cerebral anoxia in mice; 10 mg/kg sc): 19.47 ± 1.17 min; Average survival time (min)(means ± S.E.M.) (cerebral anoxia in mice; 20 mg/kg sc): 20.04 ± 1.38 min; ED50 (cerebral anoxia in mice; Mus musculus, sc, survival time in anoxic anoxia): 29.2 mg/kg; Necrotic percent (%) [1]: 17 ± 2 %; Score of praxiology After operation [1]: 9.5 ± 0.5; Weight of necrotic area [1]: 0.12 ± 0.02 g; Score of praxiology 24 h ([1]; 24 h): 7.1 ± 1.9; Percent of volume (Means ± SEM) [2]: 12.73 ± 1.24% |
| COc1ccc(C(=O)CN2CCN(CC(=O)c3ccccc3)CC2)cc1 [IV-9, N^1-phenacyl-N^4-(4-methoxyphenacyl) piperazine] | 30% | 10^−5 | could excite preparations directly | – | – | – | – |
| CC(C(=O)c1ccccc1)N1CCN(C(C)C(=O)c2ccccc2)CC1 (stereo not drawn) [IV-10, N^1,N^4-di (1-benzoylethyl) piperazine] | – | 10^−5 | could excite preparations directly | – | – | – | ILS at 20 mg/kg ([3]; read-out: Prolonging the survival duration (%), mice): > 50% |
| O=C(CN1CCN(CC(=O)c2ccc([N+](=O)[O-])cc2)CC1)c1ccccc1 [IV-11, N^1-phenacyl-N^4-(4-nitrophenacyl) piperazine] | 2% | 10^−5 | could excite preparations directly | – | – | – | – |
| COc1ccc2cc(C(=O)C(C)N3CCN(CC(=O)c4ccccc4)CC3)ccc2c1Cl (stereo not drawn) [IV-20, N^1-phenacyl-N^4-[1-(5-chloro-6-methoxy-2-naphthoyl)ethyl]piperazine] | – | – | – | 0.14 ± 0.04 g | 9.5 ± 0.6 | 8.8 ± 1.3 | Percentage of infarct volume (%) [4]: 18.80 ± 5.61 % |
| O=C(CN1CCN(CC=Cc2ccccc2)CC1)NCc1ccccc1 [IV-21, N1-[2-(benzylamino)-2-oxo-ethyl]-N^4-cinnamyl piperazine] | 33% | – | – | 0.12 ± 0.07 g | 9.8 ± 0.5 | 6.8 ± 2.5 | Percentage of infarct volume (%) [4]: 15.53 ± 8.27 % |
| O=C(CN1CCN(S(=O)(=O)Cc2ccc(F)cc2F)CC1)c1ccccc1 [IV-22, N^1-phenacyl-N^4-(2,4-difluorobenzylsulfonyl) piperazine] | 26% | – | – | 0.10 ± 0.02 g | 9.6 ± 0.9 | 7.4 ± 2.4 | – |
| COc1ccc2cc(C(=O)C(C)N3CCN(CC(=O)NCc4ccccc4)CC3)ccc2c1Cl (stereo not drawn) [IV-33, N^1-[1-(5-chloro-6-methoxy-2-naphthoyl)ethyl]-N^4-[2-(benzylamino)-2-oxo-ethyl] piperazine] | – | – | – | 0.12 ± 0.04 g | 9.6 ± 0.6 | 8.4 ± 1.5 | – |
| O=C(c1ccc([N+](=O)[O-])cc1)N1CCN(CC(O)c2ccccc2)CC1 (stereo not drawn) [IV-35, N^1-(4-nitrobenzoyl)-N^4-(2-phenylethyl-2-ol) piperazine] | – | 3 × 10^−5 | could excite preparations directly | – | – | – | Prolonging the survival duration (%) ([3]; mice): 42% |
| O=C(CN1CCN(CC(O)c2ccccc2)CC1)c1ccccc1 (stereo not drawn) [IV-36, N^1-phenacyl-N^4-(2-phenylethyl-2-ol) piperazine] | – | – | – | – | – | – | Recovery time of EEG ([5]; 20 mg/kg orally for 3 days): 20.10 min |
| CN[C@H](CC(=O)O)C(=O)O [NMDA, N-methyl-D-aspartate] | – | – | – | – | – | – | LDH activities (U/g protein) (mean ± SEM) ([6]; NMDA 0.1 mmol/L): 1.51 ± 0.25 U/g protein; LDH activities (U/g protein) (mean ± SEM) ([6]; NMDA 0.5 mmol/L): 1.63 ± 0.19 U/g protein; LDH activities (U/g protein) (mean ± SEM) ([6]; NMDA 1 mmol/L): 1.74 ± 0.17 U/g protein; LDH activities (U/g protein) (mean ± SEM) ([6]; NMDA 2 mmol/L): 2.38 ± 0.31 U/g protein |
| COCCOC(=O)C1=C(C)NC(C)=C(C(=O)OC(C)C)C1c1cccc([N+](=O)[O-])c1 (stereo not drawn) [Nimodipine, reference compound] | – | – | – | 0.188 ± 0.013 g | 9.3 ± 1.7 | 9.0 ± 4.1 | Recovery time of EEG ([5]; Nimodipine 1 mg/kg positive control): 13.49 ± 5.55 min; The neurological deficit score 24 h [7]: 8.3 ± 2.0; The neurological deficit score After the operation [7]: 9.7 ± 0.5; The percentage of infarction (%) [7]: 20.5 ± 6.8 %; The weight of infarct area [7]: 0.15 ± 0.05 g; Time for electroencephalogram to disappear(S) [8]: 396.0 ± 559.8^Δ S; Time for electroencephalogram to recover (S) [8]: 3264.0 ± 336.4^Δ S; Time for righting reflex to recover (S) [8]: 1284.0 ± 1319.8^Δ S |
